Measurements reported in patent publication US11583507B2, “Direct AMPK activator compounds” (SOCIETE DES PRODUITS NESTLE S.A., priority 2018, dated 2023).
Each block holds one molecule with its values, some of them ahead of it.

What was measured:
[1] = target: T1, AMPK α2β1γ1 R298G (211 R298G) mutant (Homo sapiens, UniProt P54619+P54646+Q9Y478, R299G); assay: AMPK in vitro activity assay (HTRF-KinEASE), γ1 R298G mutant; format: biochemical; conditions: mutation in the γ1 AMP binding pocket
T1 construct: His; made in house; host or cells: bacteria
Procedure: (§1) Lusianthridin (CAS 87530-30-1) was isolated from Thunia alba fruit. It was sourced from Analyticon (NP-012362). The plant was purchased through Analyticon's biomaterial supplier in 2003. The country of origin is Nepal. The AMPK heterotrimers were expressed in bacteria and purified through the His-α subunit by nickel purification. AMPK complexes were purified through gel filtration and phosphorylated by incubation with CaMKKβ, and further purified with a final gel filtration purification step. Phosphorylated purified AMPK was incubated with varying concentrations of ligand for 30 mins using substrate and reagents from the HTRF-KinEASE Cisbio assay kit (STK S1 Kit). Phosphorylation of the substrate was measured by incubating with donor and acceptor antibodies for 2 h at room temperature as per the manufacturer's protocol (and Coulerie et al., (2016) PMID: 27792327) and phosphorylated peptide detected by performing HTRF. The 665 nm/620 nm ratio was determined and the results are plotted as fold activation compared to the respective AMPK complex without any compound.

[2] = tested on: AMPK substrate, acetyl-CoA carboxylase (ACC); assay: pACC HTRF assay in U2OS Flp-In T-REx cells; format: cell-based; conditions: 1 h, varying concentrations, dose-dependent
Procedure: U2OS Flp-In T-REx cells were seeded at 100 K in a 96-well plate and left overnight at 37 C in DMEM GlutaMAX (Thermo Fisher Scientific) supplemented with 10% (vol/vol) FBS and 100 U/ml penicillin G, and 100 μg/ml streptomycin. Cells were treated for 1 h with varying concentrations of Lusianthridin in media lacking FBS and then cells were lysed in 50 μl of Cisbio lysis buffer #1 supplemented with blocking solution as per the manufacturer's protocol (Cisbio). Cells were lysed for 30 mins at room temperature before 16 μl of lysate was incubated with 4 μl of the HTRF antibodies (1:40 dilution of the acceptor and donor (p)ACC antibodies, as per the manufacturers protocol). Lysates were incubated overnight with the antibodies before 665 nm/620 nm ratio was determined using a MolecularDevices i3 plate reader (with a HTRF cartridge add-on). For western blot analysis, SDS-sample buffer was added to the remainder of the lysate, denatured at 95 C and then subjected to western blot analysis with phospho-specific and total ACC antibodies (Cell Signalling). Bands were visualized by incubating with Li-Cor secondary antibody and scanned on a Li-Cor Odyssey machine.

[3] = target: T2, AMPKα2β1γ1 (211) (Homo sapiens, UniProt P54619+P54646+Q9Y478); assay: AMPK in vitro activity assay (HTRF-KinEASE), phosphorylated bacterially-expressed complex; format: biochemical; conditions: fold activation vs complex without compound; 30 mins incubation
T2 construct: His; made in house; host or cells: bacteria
Procedure: as §1

[4] = tested on: primary hepatocytes; assay: Lipogenesis ([1-14C]-acetate incorporation into fatty acids) in primary hepatocytes; format: cell-based, mouse; conditions: 1 h at 37 C, varying concentrations
Procedure: Hepatocyte isolation: The liver was first perfused with 50 ml perfusion buffer (Krebs-Hepes buffer with […] EDTA), followed with 50 ml collagenase A buffer (Krebs-Hepes buffer with 5 mM CaCl2 and 0.5 mg/ml collagenase). […] Hepatocytes were left to attach (3-4 h) and cultured overnight in M199 supplemented with antibiotics and 100 nM dexamethasone. Cells were used for experiments the following morning. For primary hepatocyte isolation see Example 4. For lipogenesis measurements in primary hepatocytes, cells were seeded at 600 K cells per well in a 6-well plate overnight. Media was replaced with fresh M199 media alone for 2 hours prior to incubation with varying concentrations of Lusianthridin for 1 h at 37 C, in the presence of [1-^14C]-acetate. The incorporation of [^14C] into fatty acids was determined in the lower organic layer after separation from the aqueous phase. […] Lipogenesis is controlled by the AMPK substrate ACC, and phosphorylation and inhibition of ACC by AMPK, leads to a decrease in lipogenesis. Lipogenesis was measured in primary hepatocytes by determining the incorporation of ^14C-labelled acetate into fatty acids. Lipogenesis was monitored in the presence or absence of varying concentrations of Lusianthridin for 1 h at 37 C. […] This observation is consistent with its ability to activate AMPK in hepatocytes, which leads to the phosphorylation and inhibition of ACC.

[5] = target: T3, AMPK α2β1γ1 S108A mutant (211 S108A) (Homo sapiens, UniProt P54619+P54646+Q9Y478, S108A); assay: AMPK in vitro activity assay (HTRF-KinEASE), β1 S108A mutant; format: biochemical
T3 construct: His; made in house; host or cells: bacteria
Procedure: as §1

[6] = tested on: AMPK α2β1γ1 ΔCBM mutant (211 ΔCBM); assay: AMPK in vitro activity assay (HTRF-KinEASE), ΔCBM mutant; format: biochemical; conditions: carbohydrate-binding module deleted
Procedure: as §1

[7] = target: T4, AMPKα1β1γ1 (111) (Homo sapiens, UniProt P54619+Q13131+Q9Y478); assay: AMPK in vitro activity assay (HTRF-KinEASE), α1-containing complex; format: biochemical; conditions: fold activation vs complex without compound
T4 construct: His; made in house; host or cells: bacteria
Procedure: as §1

[8] = tested on: differentiated C2C12 cells; assay: Glucose uptake (3H-2-deoxyglucose) into differentiated C2C12 cells; format: cell-based; conditions: Lusianthridin 100 μM for 4 h at 37 C
Procedure: C2C12 cells were maintained in DMEM GlutaMAX supplemented with 10% (vol/vol) FBS and 100 U/ml penicillin G, and 100 μg/ml streptomycin. C2C12 myoblasts were differentiated into myotubes by 7 days of culture in DMEM GlutaMAX supplemented with 2% (vol/vol) horse serum and antibiotics. Cells were transferred to serum-free media for 24 hours, before equilibrating with bicarbonate-free medium prior to treatment. Cells were treated with Control (DMSO 1% final concentration) or 100 μM Lusianthridin in the presence of ^3H-2-deoxyglucose (in Krebs-Hepes buffer containing sodium pyruvate). Cells were lysed and the quantity of ^3H determined in these samples using a scintillation counter.
Activation of AMPK in muscle cells has been previously shown to increase glucose uptake. […] Differentiated C2C12 cells were treated with either control or 100 μM Lusianthridin for 4 h at 37 C. Glucose uptake was determined by monitoring the uptake of ^3H-2-deoxyglucose into cells. […] This is consistent with the important role of AMPK in mediating glucose uptake in muscle.

[9] = target: T5, AMPK α2β2γ1 (221) (Homo sapiens, UniProt O43741+P54619+P54646); assay: AMPK in vitro activity assay (HTRF-KinEASE), β2-containing complex; format: biochemical; conditions: fold activation vs complex without compound
T5 construct: His; made in house; host or cells: bacteria
Procedure: as §1

[10] = tested on: mouse primary hepatocytes; assay: MTT cytotoxicity assay in mouse primary hepatocytes; conditions: 1 h at 37 C, Lusianthridin up to 100 μM

T2 sequence (P54646 whole entry): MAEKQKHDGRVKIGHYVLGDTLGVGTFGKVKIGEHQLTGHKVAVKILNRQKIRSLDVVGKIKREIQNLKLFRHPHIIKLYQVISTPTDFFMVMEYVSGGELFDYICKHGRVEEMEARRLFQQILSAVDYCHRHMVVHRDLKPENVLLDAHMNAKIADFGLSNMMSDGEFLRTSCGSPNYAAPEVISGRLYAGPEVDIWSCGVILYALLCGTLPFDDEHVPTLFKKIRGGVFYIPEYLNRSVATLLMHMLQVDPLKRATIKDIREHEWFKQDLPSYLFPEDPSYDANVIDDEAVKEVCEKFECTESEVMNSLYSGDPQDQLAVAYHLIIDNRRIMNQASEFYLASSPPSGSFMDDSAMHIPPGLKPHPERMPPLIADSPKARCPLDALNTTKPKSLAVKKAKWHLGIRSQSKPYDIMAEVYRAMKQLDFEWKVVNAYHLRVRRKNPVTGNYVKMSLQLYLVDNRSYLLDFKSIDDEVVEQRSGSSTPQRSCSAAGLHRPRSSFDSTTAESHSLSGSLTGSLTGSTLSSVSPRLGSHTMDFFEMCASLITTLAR
T2 sequence (Q9Y478 whole entry): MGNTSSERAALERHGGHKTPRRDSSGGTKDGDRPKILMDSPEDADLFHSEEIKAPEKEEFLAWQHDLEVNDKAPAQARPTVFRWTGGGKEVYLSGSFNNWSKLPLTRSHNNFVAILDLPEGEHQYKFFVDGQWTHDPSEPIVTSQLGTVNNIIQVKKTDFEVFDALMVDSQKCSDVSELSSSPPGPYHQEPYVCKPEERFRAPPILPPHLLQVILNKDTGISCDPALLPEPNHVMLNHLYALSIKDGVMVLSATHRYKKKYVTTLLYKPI
T2 sequence (P54619 whole entry): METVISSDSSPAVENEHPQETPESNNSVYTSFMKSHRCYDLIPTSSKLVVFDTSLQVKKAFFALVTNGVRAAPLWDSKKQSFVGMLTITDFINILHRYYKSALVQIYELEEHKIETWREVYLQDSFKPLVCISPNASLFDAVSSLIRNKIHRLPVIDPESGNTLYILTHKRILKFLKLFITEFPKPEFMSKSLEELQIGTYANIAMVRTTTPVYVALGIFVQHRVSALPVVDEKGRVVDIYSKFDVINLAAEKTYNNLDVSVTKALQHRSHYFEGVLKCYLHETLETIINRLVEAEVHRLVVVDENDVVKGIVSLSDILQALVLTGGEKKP
T5 sequence (P54646 whole entry): as the sequence (P54646 whole entry) above
T5 sequence (O43741 whole entry): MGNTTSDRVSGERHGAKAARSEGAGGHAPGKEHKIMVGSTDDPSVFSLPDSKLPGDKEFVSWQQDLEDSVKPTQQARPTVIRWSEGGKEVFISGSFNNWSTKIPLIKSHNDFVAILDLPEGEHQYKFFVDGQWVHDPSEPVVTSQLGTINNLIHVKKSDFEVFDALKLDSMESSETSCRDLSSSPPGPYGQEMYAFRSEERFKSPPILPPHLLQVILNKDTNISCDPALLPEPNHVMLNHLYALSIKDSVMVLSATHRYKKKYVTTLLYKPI
T5 sequence (P54619 whole entry): as the sequence (P54619 whole entry) above
T1 sequence (P54646 whole entry): as the sequence (P54646 whole entry) above
T1 sequence (Q9Y478 whole entry): as the sequence (Q9Y478 whole entry) above
T1 sequence (P54619 whole entry R299G): as the sequence (P54619 whole entry) above, with R299G counted along it
T3 sequence (P54646 whole entry): as the sequence (P54646 whole entry) above
T3 sequence (Q9Y478 whole entry S108A): as the sequence (Q9Y478 whole entry) above, with S108A counted along it
T3 sequence (P54619 whole entry): as the sequence (P54619 whole entry) above
T4 sequence (Q13131 whole entry): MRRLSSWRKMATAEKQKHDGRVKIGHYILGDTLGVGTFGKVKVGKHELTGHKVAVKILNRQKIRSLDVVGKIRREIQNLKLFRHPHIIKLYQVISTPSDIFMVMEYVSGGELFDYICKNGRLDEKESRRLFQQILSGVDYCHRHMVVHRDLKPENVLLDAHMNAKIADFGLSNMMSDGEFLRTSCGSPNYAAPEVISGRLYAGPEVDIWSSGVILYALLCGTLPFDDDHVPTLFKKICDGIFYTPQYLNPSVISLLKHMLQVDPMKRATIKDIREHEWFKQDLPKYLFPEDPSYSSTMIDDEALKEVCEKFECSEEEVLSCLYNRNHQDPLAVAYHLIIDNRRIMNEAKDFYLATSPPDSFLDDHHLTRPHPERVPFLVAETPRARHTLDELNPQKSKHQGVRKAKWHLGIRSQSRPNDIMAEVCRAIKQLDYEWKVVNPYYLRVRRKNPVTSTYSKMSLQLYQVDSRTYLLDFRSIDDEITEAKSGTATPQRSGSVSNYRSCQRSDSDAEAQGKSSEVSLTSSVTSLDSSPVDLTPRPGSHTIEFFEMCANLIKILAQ
T4 sequence (Q9Y478 whole entry): as the sequence (Q9Y478 whole entry) above
T4 sequence (P54619 whole entry): as the sequence (P54619 whole entry) above

- activation of AMPK α2β1γ1 γ1 R298G mutant complexes [1]: impaired
Structure (SMILES): Nc1ncnc2c1ncn2[C@@H]1O[C@H](COP(=O)(O)O)[C@@H](O)[C@H]1O [AMP, reference compound]

- activation of bacterially-expressed AMPKα2β1γ1 complexes [3]: activate
Structure (SMILES): COc1cc(O)c2c(c1)CCc1cc(O)c(O)cc1-2 [Compound 2, 7-Methoxy-9,10-dihydrophenanthrene-2,3,5-triol]
- phosphorylation of the AMPK substrate ACC (pACC HTRF) [2]: increase

- activation of bacterially-expressed AMPKα2β1γ1 complexes [3]: activate
Structure (SMILES): Oc1ccc2c(c1)CCc1cccc(O)c1-2 [Compound 3, 9,10-Dihydrophenanthrene-2,5-diol]
- phosphorylation of the AMPK substrate ACC (pACC HTRF) [2]: increase

Structure (SMILES): Oc1ccc2c(c1)CCc1cc(O)cc(O)c1-2 [Compound 4, 9,10-Dihydrophenanthrene-2,4,7-triol]
- rate of lipogenesis (DPM per μg of protein) [4]: dose-dependent decrease
- activation of AMPK complexes with the β1 S108A mutation [5]: did not activate
- activation of α2β1γ1 ΔCBM mutant [6]: did not activate
- activation of bacterially-expressed AMPKα1β1γ1 complexes [7]: activates
- phosphorylation of the AMPK substrate ACC (pACC HTRF) [2]: increase
- fold increase in glucose uptake relative to control [8]: ~2 fold
- activation of β2-containing AMPK complexes (α2β2γ1) [9]: did not activate
- activation of bacterially-expressed AMPKα2β1γ1 complexes [3]: activate

- activation of bacterially-expressed AMPKα2β1γ1 complexes [3]: activate
Structure (SMILES): COc1cc(O)c2c(c1)CCc1ccc(O)cc1-2 [Compound 5, 7-Methoxy-9,10-dihydrophenanthrene-3,5-diol]
- phosphorylation of the AMPK substrate ACC (pACC HTRF) [2]: increase

Structure (SMILES): N#CC(C#N)=NNc1ccc(OC(F)(F)F)cc1 [FCCP, carbonyl cyanide P-(trifluoromethoxy) phenylhydrazone]
- cell viability (MTT, percentage of viable cells) [10]: robust decrease in cell viability

Structure (SMILES): CC[C@H]1/C=C/C=C/C[C@@H](C)[C@H](O)[C@@](C)(O)C(=O)[C@@H](C)[C@H](O)[C@@H](C)C(=O)[C@@H](C)[C@H](O)[C@@H](C)/C=C/C(=O)O[C@@H]2[C@H](C)[C@H](CC1)O[C@]1(CC[C@H](C)[C@H](C[C@@H](C)O)O1)[C@H]2C [Oligomycin]
- cell viability (MTT, percentage of viable cells) [10]: robust decrease in cell viability
